This is an account of results in patent US10501461B2, “Tyrosine amide derivatives as Rho-kinase inhibitors” (CHIESI FARMACEUTICI S.P.A., priority 2017, dated 2019).

One assay deals with Rho kinase 2 (ROCK-II) (Homo sapiens, UniProt O75116). Nature of the assay: In vitro Rho kinase inhibitory activity assay (ADP-Glo), Rho kinase 2. Type of assay: biochemical. Conditions: 10 μM ATP, 25° C., expressed as range of activity. Put shortly:
(§1)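 Each kinase (ROCK1 or ROCK2) sat with compound for 30 min at 25 °C before 10 μM ATP started a 1 h reaction on 2.5 μM myelin basic protein (Tris pH 7.5, MgCl2, BSA, DTT, 1% DMSO). ADP formed was read by ADP-Glo luminescence. Dose-response IC50s were converted to Ki by Cheng-Prusoff.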
In general terms: ADP-Glo turns the ADP formed in a reaction into a luminescent signal.

In another assay the target is Rho kinase 1 (ROCK-I) (Homo sapiens, UniProt Q13464). Kind of assay: In vitro Rho kinase inhibitory activity assay (ADP-Glo), Rho kinase 1. Type of assay: biochemical. The settings on record: 10 μM ATP, 25° C., expressed as range of activity. Summed up:
as §1

A value given as a limit tells only on which side of the number the result lay.

Chain of Rho kinase 1 (ROCK-I) (Q13464 whole entry): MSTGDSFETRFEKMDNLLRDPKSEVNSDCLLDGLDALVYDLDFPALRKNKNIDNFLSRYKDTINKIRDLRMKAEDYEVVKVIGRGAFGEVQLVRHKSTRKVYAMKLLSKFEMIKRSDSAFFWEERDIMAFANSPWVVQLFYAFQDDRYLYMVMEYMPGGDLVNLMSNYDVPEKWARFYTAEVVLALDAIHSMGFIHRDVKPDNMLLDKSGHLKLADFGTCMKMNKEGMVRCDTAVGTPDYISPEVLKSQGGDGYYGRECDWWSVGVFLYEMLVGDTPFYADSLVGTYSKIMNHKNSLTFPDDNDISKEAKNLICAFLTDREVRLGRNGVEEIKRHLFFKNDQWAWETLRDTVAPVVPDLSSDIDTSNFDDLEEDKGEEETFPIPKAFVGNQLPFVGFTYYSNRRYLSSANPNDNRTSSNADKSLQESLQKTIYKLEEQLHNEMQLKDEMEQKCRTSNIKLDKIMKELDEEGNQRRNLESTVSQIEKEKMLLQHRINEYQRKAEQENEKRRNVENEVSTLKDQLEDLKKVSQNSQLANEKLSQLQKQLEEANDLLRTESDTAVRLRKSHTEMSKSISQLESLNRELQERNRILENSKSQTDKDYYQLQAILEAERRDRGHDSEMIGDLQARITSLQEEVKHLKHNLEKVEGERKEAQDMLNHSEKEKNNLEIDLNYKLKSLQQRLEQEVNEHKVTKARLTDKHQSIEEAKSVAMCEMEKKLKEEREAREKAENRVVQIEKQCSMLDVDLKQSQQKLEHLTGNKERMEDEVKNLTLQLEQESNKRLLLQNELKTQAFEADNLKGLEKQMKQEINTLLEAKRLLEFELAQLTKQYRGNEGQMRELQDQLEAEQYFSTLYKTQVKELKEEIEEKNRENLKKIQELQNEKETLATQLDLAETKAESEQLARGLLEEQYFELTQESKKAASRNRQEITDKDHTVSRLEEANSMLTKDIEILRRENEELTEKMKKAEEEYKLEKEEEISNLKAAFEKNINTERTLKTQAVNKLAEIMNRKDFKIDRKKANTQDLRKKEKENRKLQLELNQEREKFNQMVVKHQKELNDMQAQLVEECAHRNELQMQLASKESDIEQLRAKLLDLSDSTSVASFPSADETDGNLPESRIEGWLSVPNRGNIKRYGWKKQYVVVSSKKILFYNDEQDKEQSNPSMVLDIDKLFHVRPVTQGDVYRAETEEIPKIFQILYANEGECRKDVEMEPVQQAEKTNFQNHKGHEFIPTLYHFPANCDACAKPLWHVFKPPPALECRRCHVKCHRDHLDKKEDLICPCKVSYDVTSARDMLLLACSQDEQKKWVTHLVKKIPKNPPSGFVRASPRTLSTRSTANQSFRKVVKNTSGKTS
Chain of Rho kinase 2 (ROCK-II) (O75116 whole entry): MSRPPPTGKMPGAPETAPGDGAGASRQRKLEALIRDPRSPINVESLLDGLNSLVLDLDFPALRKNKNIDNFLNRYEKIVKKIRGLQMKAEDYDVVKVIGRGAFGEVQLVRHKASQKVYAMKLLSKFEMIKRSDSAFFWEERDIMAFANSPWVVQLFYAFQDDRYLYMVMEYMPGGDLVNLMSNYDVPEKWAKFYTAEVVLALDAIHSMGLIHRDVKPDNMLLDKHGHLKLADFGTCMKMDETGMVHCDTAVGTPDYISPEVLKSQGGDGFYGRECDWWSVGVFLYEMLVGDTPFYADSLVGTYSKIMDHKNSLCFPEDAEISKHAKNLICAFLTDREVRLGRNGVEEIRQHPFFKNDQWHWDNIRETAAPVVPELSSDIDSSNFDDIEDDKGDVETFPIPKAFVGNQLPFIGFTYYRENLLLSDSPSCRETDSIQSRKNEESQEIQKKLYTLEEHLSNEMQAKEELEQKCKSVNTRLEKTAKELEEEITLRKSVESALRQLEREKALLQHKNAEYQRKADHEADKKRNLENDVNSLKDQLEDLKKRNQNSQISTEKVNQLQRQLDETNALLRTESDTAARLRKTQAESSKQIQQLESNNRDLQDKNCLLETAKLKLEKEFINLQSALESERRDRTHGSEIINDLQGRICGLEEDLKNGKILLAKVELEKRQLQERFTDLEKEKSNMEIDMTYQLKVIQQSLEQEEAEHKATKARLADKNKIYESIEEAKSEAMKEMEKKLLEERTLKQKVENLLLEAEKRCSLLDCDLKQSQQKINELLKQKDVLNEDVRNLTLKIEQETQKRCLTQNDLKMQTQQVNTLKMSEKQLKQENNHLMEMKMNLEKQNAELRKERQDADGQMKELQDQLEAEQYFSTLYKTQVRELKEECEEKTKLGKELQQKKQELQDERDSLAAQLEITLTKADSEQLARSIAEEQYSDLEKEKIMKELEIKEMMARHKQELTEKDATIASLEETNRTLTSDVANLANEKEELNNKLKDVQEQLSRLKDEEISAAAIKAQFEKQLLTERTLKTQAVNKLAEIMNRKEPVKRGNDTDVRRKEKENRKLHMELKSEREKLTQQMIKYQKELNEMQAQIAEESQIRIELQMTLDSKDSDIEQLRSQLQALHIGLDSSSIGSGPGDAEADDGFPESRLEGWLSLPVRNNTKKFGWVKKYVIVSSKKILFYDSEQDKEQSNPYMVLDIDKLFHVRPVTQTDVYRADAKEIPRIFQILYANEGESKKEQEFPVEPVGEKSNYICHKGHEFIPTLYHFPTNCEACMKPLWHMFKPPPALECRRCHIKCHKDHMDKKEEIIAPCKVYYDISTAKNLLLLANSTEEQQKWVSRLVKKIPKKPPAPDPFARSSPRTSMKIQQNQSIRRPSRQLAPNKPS

Turning to `N[C@H](Cc1ccc(Oc2ccnc3[nH]ccc23)cc1)C(=O)NC1CCCCC1` [Example 112, (R)-3-(4-((1H-pyrrolo[2,3-b]pyridin-4-yl)oxy)phenyl)-2-amino-N-cyclohexylpropanamide], the Ki on Rho kinase 2 (ROCK-II) is 3 to 30 nM; at Rho kinase 1 (ROCK-I), greater than 30 nM.
The matching figures for `N#Cc1c[nH]c2nccc(Oc3ccc(C[C@H](N)C(=O)NC4CCOCC4)cc3)c12` [Example 218, (S)-2-amino-3-(4-((3-cyano-1H-pyrrolo[2,3-b]pyridin-4-yl)oxy)phenyl)-N-(tetrahydro-2H-pyran-4-yl)propanamide]: less than 3 nM and less than 3 nM.
The matching figures for `Cc1c[nH]c2nccc(Oc3ccc(CC(N)C(=O)N4CCN(CCc5ccccc5)CC4)cc3F)c12` (stereo not shown) [Example 53, 2-amino-3-(3-fluoro-4-((3-methyl-1H-pyrrolo[2,3-b]pyridin-4-yl)oxy)phenyl)-1-(4-phenethylpiperazin-1-yl)propan-1-one]: less than 3 nM and less than 3 nM.
Turning to `Cc1c[nH]c2ncnc(Oc3ccc(C[C@H](N)C(=O)N4C[C@@H]5C[C@H]4CN5C)cc3F)c12` [Example 121, 2-amino-3-(3-fluoro-4-((5-methyl-7H-pyrrolo[2,3-d]pyrimidin-4-yl)oxy)phenyl)-1-((1S,4S)-5-methyl-2,5-diazabicyclo[2.2.1]heptan-2-yl)propan-1-one], the Ki on Rho kinase 2 (ROCK-II) and on Rho kinase 1 (ROCK-I) was 3 to 30 nM in each case.
Regarding `Cc1c[nH]c2nccc(Oc3ccc(C[C@H](N)C(=O)N4CCN(Cc5ccnnc5)CC4)cc3F)c12` [Example 153, (S)-2-amino-3-(3-fluoro-4-((3-methyl-1H-pyrrolo[2,3-b]pyridin-4-yl)oxy)phenyl)-1-(4-(pyridazin-4-ylmethyl)piperazin-1-yl)propan-1-one], the Ki on Rho kinase 2 (ROCK-II) and on Rho kinase 1 (ROCK-I) was less than 3 nM each time.
As for `Cc1c[nH]c2nccc(Oc3ccc(C[C@H](N)C(=O)N4CCOC(c5ccccc5)C4)cc3F)c12` (mixture of isomers) [Example 4, (2S)-2-amino-3-(3-fluoro-4-((3-methyl-1H-pyrrolo[2,3-b]pyridin-4-yl)oxy)phenyl)-1-(2-phenylmorpholino)propan-1-one], the Ki on Rho kinase 2 (ROCK-II) and at Rho kinase 1 (ROCK-I) was less than 3 nM each time.
Consider `Cc1c[nH]c2nccc(Oc3ccc(C[C@H](N)C(=O)N4CCN(S(=O)(=O)c5ccccc5)CC4)cc3F)c12` [Example 22, (S)-2-amino-3-(3-fluoro-4-((3-methyl-1H-pyrrolo[2,3-b]pyridin-4-yl)oxy)phenyl)-1-(4-(phenylsulfonyl)piperazin-1-yl)propan-1-one], for which the Ki at Rho kinase 2 (ROCK-II) and on Rho kinase 1 (ROCK-I) was less than 3 nM each time.
Consider `COCc1c[nH]c2nccc(Oc3ccc(C[C@H](N)C(=O)NC4CCOCC4)cc3F)c12` [Example 214, (S)-2-amino-3-(3-fluoro-4-((3-(methoxymethyl)-1H-pyrrolo[2,3-b]pyridin-4-yl)oxy)phenyl)-N-(tetrahydro-2H-pyran-4-yl)propanamide], for which the Ki at Rho kinase 2 (ROCK-II) and on Rho kinase 1 (ROCK-I) was 3 to 30 nM each time.
With `Cc1c[nH]c2nccc(Oc3ccc(C[C@H](N)C(=O)N4CCN(C(=O)c5ccc(CN(C)C)cc5)CC4)cc3F)c12` [Example 172, (S)-2-amino-1-(4-(4-((dimethylamino)methyl)benzoyl)piperazin-1-yl)-3-(3-fluoro-4-((3-methyl-1H-pyrrolo[2,3-b]pyridin-4-yl)oxy)phenyl)propan-1-one], the inhibitory constant (Ki) on Rho kinase 2 (ROCK-II) and on Rho kinase 1 (ROCK-I) was less than 3 nM in each case.
Regarding `CCn1nccc1-c1c[nH]c2nccc(Oc3ccc(C[C@H](N)C(=O)N4CCN(Cc5ccccc5)CC4)cc3)c12` [Example 193, (S)-2-amino-1-(4-benzylpiperazin-1-yl)-3-(4-((3-(1-ethyl-1H-pyrazol-5-yl)-1H-pyrrolo[2,3-b]pyridin-4-yl)oxy)phenyl)propan-1-one], the Ki at Rho kinase 2 (ROCK-II) and on Rho kinase 1 (ROCK-I) was 3 to 30 nM in each case.
On to `CN(C(=O)[C@H](N)Cc1ccc(Oc2ccnc3[nH]ccc23)cc1)C1CCCCC1` [Example 102, (R)-3-(4-((1H-pyrrolo[2,3-b]pyridin-4-yl)oxy)phenyl)-2-amino-N-eyclohexyl-N-methylpropanamide], for which the Ki on Rho kinase 2 (ROCK-II) and at Rho kinase 1 (ROCK-I) was greater than 30 nM each time.

By Ki is commonly meant a dissociation constant, usually derived from enzyme kinetics or from competition with a known ligand. A higher Ki goes with lower affinity.
